{
  "source": "paper PMC3531433",
  "about": "“Structural Insights into Cellulolytic and Chitinolytic Enzymes Revealing Crucial Residues of Insect β-N-acetyl-D-hexosaminidase” (PLoS ONE, 2012)",
  "key": {"OfHex1 [1]": {"molecular_target": "T1, OfHex1 (Ostrinia furnacalis, UniProt Q06GJ0, E328A)", "T1 construct": "pPIC9, secreted from Pichia pastoris GS115; HisTrap and Mono Q purified; dimer with N-terminal zincin-like and C-terminal catalytic domain (residues 207-594)", "T1 sequence (Q06GJ0 23-594 E328A)": "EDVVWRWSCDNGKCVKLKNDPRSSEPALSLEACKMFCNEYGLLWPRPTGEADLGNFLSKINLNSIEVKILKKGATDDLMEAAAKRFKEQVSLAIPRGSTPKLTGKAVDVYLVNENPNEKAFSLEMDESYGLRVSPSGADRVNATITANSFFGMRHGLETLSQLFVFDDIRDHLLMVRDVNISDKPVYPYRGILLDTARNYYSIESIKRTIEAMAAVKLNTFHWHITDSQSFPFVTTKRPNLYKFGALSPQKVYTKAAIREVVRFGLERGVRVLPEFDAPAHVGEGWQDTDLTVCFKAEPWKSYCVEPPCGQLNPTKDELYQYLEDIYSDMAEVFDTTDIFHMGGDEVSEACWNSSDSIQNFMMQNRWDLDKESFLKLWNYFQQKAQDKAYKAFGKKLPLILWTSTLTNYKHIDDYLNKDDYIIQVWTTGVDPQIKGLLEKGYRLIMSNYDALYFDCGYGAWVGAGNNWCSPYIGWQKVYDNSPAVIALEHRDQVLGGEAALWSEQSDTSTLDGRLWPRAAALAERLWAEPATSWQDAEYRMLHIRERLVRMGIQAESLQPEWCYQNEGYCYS", "experiment": "inhibition of 4MU-β-GlcNAc hydrolysis, Dixon plot", "format": "biochemical", "description": "(§1) inhibition of 4MU-β-GlcNAc hydrolysis, Dixon plot on OfHex1"}, "OfHex1 [2]": {"molecular_target": "T2, OfHex1 (Ostrinia furnacalis, UniProt Q06GJ0, E328Q)", "T2 construct": "pPIC9, secreted from Pichia pastoris GS115; HisTrap and Mono Q purified; dimer with N-terminal zincin-like and C-terminal catalytic domain (residues 207-594)", "T2 sequence (Q06GJ0 23-594 E328Q)": "T1 sequence (Q06GJ0 23-594 E328A)", "experiment": "inhibition of 4MU-β-GlcNAc hydrolysis, Dixon plot", "format": "biochemical", "description": "as §1"}},
  "note": "pKi: −log10 of the molar value.",
  "data": [
    {"smiles": "CC(=O)N[C@@H]1[C@@H](O)[C@H](O[C@@H]2O[C@H](CO)[C@@H](O[C@@H]3O[C@H](CO)[C@@H](O[C@@H]4O[C@H](CO)[C@@H](O)[C@H](O)[C@H]4[N+](C)(C)C)[C@H](O)[C@H]3NC(C)=O)[C@H](O)[C@H]2NC(C)=O)[C@@H](CO)O[C@H]1O", "note": "[TMG-chitotriomycin]", "values": [
      {"measurement": "pKi", "setting": "OfHex1 [1]", "result": 5.57},
      {"measurement": "pKi", "setting": "OfHex1 [2]", "result": 7.00}
    ]}
  ]
}
